From patent US20260137091A1, “NEW PEPTIDES AND THE USE OF SAME FOR MODULATING ACCUMULATION OF A PROTEIN” (priority 2022, published 2026)

Tested on: NSP1-GUS fusion protein
Test: Quantification of GUS activity in roots expressing an NSP1-GUS fusion after cPEP treatment
Assay type: in vivo
Details: Medicago truncatula transformed roots; treatment for 5 days with 0.1 μM cPEP by spraying; versus control (water)
Method: The y-axis represents the quantification of GUS activity in the roots of an NSP1-GUS fusion in response to treatment for 5 days with 0.1 μM of a cPEP targeting the 5′UTR region of the NSP1 gene. Error bars represent SEM, asterisks indicate a significant difference between test condition and control according to Student's t-test (n=30, p<0.05).
NSP1::GUS fusion was achieved, using a modified pCambia vector (Lauressergues et al., Nature, 520: 90-3, 2015), by cloning 3 kb of NSP1 promoter, the NSP1 gene coding sequence, the GUS protein coding sequence and 3 kb of the NSP1 gene downstream sequence (FIG. 2).
Root transformation of M. truncatula was carried out using the method described in Boisson-Dernier et al, Mol Plant Microbe Interact, 14(6): 695-700, 2001.
Plants were treated by spraying with a solution containing a low concentration of cPEPs (from 0.1 μM to 10 μM) or with water.
The accumulation of the protein targeted by cPEP was then measured in each plant by quantifying GUS activity or by quantifying protein activity by Western blot (Blizquez M., Quantitative GUS activity assay in intact plant tissue, Cold Spring Harbor Laboratory Press, Cold Spring Harbor, NY, USA, 2002).

Substance | accumulation of the NSP1 protein (quantification of GUS activity in the roots of an NSP1-GUS fusion)
SEQ ID NO: 162: cPEP (11 amino acids) translated from a fragment of the 5′UTR of NSP1 pre-mRNA, +3 reading frame (KPFKFSSSISH; NSP1-5UTR-11) | increase in the accumulation of the NSP1 protein
SEQ ID NO: 164: cPEP (10 amino acids) translated from a 30 nucleotide fragment of the 3′UTR of NSP1 pre-mRNA, +2 reading frame (CHHDEVISPQ; NSP1-3UTR) | increase in the accumulation of the NSP1 protein
